Read-outs that look alike come from different tables or passages of the source.
Key:
HCT116 MTAP WT cells = assay: Proliferation inhibition of HCT116 cells in vitro (CellTiter Glo); format: cell-based; conditions: 6 days, 9 concentrations starting from 30 μM, read-out: Cell proliferation inhibition rate HCT116 MTAP WT IC50 (nm)
Text: (§1) Biological Test Example 2 Proliferation Inhibition of HCT116 and HCT116 MTAP-KO Cells in Vitro
(§2) HCT116 cell line was purchased from the Chinese Academy of Sciences Cell Bank, and the MTAP gene was knocked out by CRISPR/Cas9 technology to obtain HCT116-MTAP-KO cell line.
(§3) McCoy's 5A medium (Gibco, catalog No. 16600082), fetal bovine serum (Gibco, catalog No. 10099141C), penicillin-streptomycin double antibody (Gibco, catalog No. 15140122), pancreatic enzyme (Gibco, catalog No. 25200056), CellTiter Glo assay kit (Promega, catalog No. G7572), 384-well transparent flat-bottomed black walled cell culture plate (Corning, catalog No. 3764), ultra micro sampler (Tecan, catalog No.D300e), Multimode reader (Biotek, catalog No. SynergyHTX)
(§4) 1. Cell culture: HCT116 and HCT116-MTAP-KO cells were cultured in McCoy'5A medium+10% fetal bovine serum+1% penicillin-streptomycin double antibody; to ensure that they were always in the logarithmic growth phase and the cell viability greater than 95%.
(§5) 2. Compound concentration gradient preparation: The compound to be tested was added to a 384-well plate using an ultra micro sampler, starting from 30 μM (HCT116 cells) or 3 μM (HCT116-MTAP-KO cells), and diluted with DMSO at 3 times for a total of 9 concentrations and set up three duplicate wells.
(§6) 3. Treatment of cells with compounds: Trypsin-digested HCT116 or HCT116-MTAP-KO cell suspension was added to the 384-well plates spotted with the compounds to be tested at 40 μL per well, i.e., 100 cells per well, and the final concentration of DMSO was 0.4%. The cell culture plate was incubated at 37° C. in a 5% CO2 incubator for 6 days.
(§7) 4. Detection: 20 μL of CellTiter Glo reagent was added to each well of the cell culture plate and incubated at room temperature for 30 minutes. A multimode reader was used to detect the luminescence signal at […].
(§8) The data was fitted with GraphPad Prism 8.0 software using a four parameter inhibitor-reaction model to obtain the IC50 value (half inhibitory concentration) of the test compounds.

[1] = system: HCT116-MTAP-KO cells (HCT116 MTAP null); assay: Proliferation inhibition of HCT116 MTAP-KO cells in vitro (CellTiter Glo); format: cell-based; conditions: 6 days, 9 concentrations starting from 3 μM, read-out: Cell proliferation inhibition rate HCT116 MTAP null IC50 (nm)
Text: as §1, §2, §3, §4, §5, §6, §7, §8

IC50 (HCT116 MTAP WT cells; Homo sapiens, HCT-116, 144 h) [µM]	IC50 ([1]; HCT116-MTAP null, 144 h) [µM]	IC50 (HCT116 MTAP WT cells) [µM]	IC50 [1] [µM]	Compound
1 to 10	< 0.1			CCOc1ccc(CN(C(=O)c2cc3c(cc2F)nc(N)c2cnc(C)n23)c2cn(C)nc2C)nc1 [Example 136]
1 to 10	< 0.1			COCCOc1ccc(C2COCC(C)N2C(=O)c2cc3c(cc2F)nc(N)c2c(C)ncn23)nc1 (stereo not drawn) [Example 105]
1 to 10	0.1 to 1			Cc1ncc2c(N)nc3cc(F)c(C(=O)N(Cc4cnc(C5CC5)n4C)c4ccnn4C)cc3n12 [Example 318]
1 to 10	1 to 10			Cc1ncc2c(N)nc3cc(F)c(C(=O)N(Cc4cn5ccccc5n4)C4CCN(C)C4)cc3n12 (stereo not drawn) [Example 65]
1 to 10	< 0.1			CCn1cc(N(Cc2ccc(OC3CC3)cn2)C(=O)c2cc3c(cc2F)nc(N)c2cnc(C)n23)c(C)n1 [Example 171]
1 to 10	< 0.1			Cc1nc(C)n2c1c(N)nc1ccc(C(=O)N(Cc3ccc(C(F)(F)F)cn3)C(C)c3ncccn3)cc12 (stereo not drawn) [Example 3]
1 to 10	< 0.1			Cc1nn(C)cc1N(Cc1ccc(C(F)(F)F)nc1)C(=O)c1cc2c(cc1F)nc(N)c1cnc(C)n12 [Example 182]
1 to 10	0.1 to 1			Cc1ncc2c(N)nc3cnc(C(=O)N(Cc4ccc(C(F)(F)F)cn4)C(C)c4ncccn4)cc3n12 (stereo not drawn) [Example 16]
1 to 10	< 0.1			Cc1ncc2c(N)nc3cc(F)c(C(=O)N4C(C)COCC4c4ccc(C(F)(F)F)cc4)cc3n12 (stereo not drawn) [Example 275]
1 to 10	< 0.1			Cc1ncc2c(N)nc3cnc(C(=O)N(Cc4ccc(C(F)(F)F)cn4)c4ccnn4C)cc3n12 [Example 211]
1 to 10	< 0.1			Cc1ncc2c(N)nc3cc(F)c(C(=O)N(Cc4ccc(C(F)(F)F)cn4)c4cnn(C)c4)cc3n12 [Example 90]
1 to 10	0.1 to 1			Cc1ncc2c(N)nc3cc(F)c(C(=O)N(Cc4ccc(C(F)(F)F)cn4)c4ncn(C)n4)cc3n12 [Example 115]
		1 to 10	< 0.1	Cc1ncc2c(N)nc3cc(F)c(C(=O)N(c4cnn(C)c4)C4COc5ccccc54)cc3n12 (stereo not drawn) [Example 125]
0.1 to 1	< 0.1			Cc1ncc2c(N)nc3cc(F)c(C(=O)N(Cc4ccc(C(F)(F)F)cn4)c4ccnn4C)cc3n12 [Example 200]
		1 to 10	0.1 to 1	CCOc1ccc(CN(CC)C(=O)c2cc3c(cc2F)nc(N)c2c(C)ncn23)nn1 [Example 95]
1 to 10	< 0.1			Cc1ncn2c1c(N)nc1ccc(C(=O)N(CC(C)C)C(C)c3nc(-c4ccccn4)cs3)cc12 (stereo not drawn) [Example 299]
1 to 10	0.1 to 1			Cc1ncc2c(N)nc3cc(F)c(C(=O)N(Cc4ccc(C(F)(F)F)cn4)C4CCOC4)cc3n12 (stereo not drawn) [Example 156]
1 to 10	0.1 to 1			COCCN(C)c1ccc(CN(C(=O)c2cc3c(cc2F)nc(N)c2cnc(C)n23)c2ccnn2C)nc1 [Example 320]
1 to 10	< 0.1			Cc1nn(C)cc1N(Cc1ccc(C(F)(F)F)cn1)Cc1cc2c(cc1F)nc(N)c1cnc(C)n12 [Example 208]
1 to 10	0.1 to 1			Cc1nn(C)cc1N(Cc1ncc(C(F)(F)F)cn1)C(=O)c1cc2c(cc1F)nc(N)c1cnc(C)n12 [Example 140]
1 to 10	0.1 to 1			Cc1ncc2c(N)nc3cc(F)c(C(=O)N(Cc4ccc(C(F)(F)F)cn4)c4cn[nH]c4)cc3n12 [Example 88]
1 to 10	0.1 to 1			CCN(Cc1ccc(OC2COC2)cn1)C(=O)c1cc2c(cc1F)nc(N)c1cnc(C)n12 [Example 99]
1 to 10	< 0.1			Cc1ncn2c1c(N)nc1cc(F)c(C(=O)N3C(C)COCC3c3ccc(C4CCOCC4)cn3)cc12 (stereo not drawn) [Example 112]
1 to 10	< 0.1			CCN(Cc1ccc(C(F)(F)F)cn1)C(=O)c1cc2c(cn1)nc(N)c1cnc(C)n12 [Example 9]
1 to 10	0.1 to 1			Cc1ncc2c(N)nc3cc(F)c(C(=O)N(Cc4ccc(C(F)(F)F)cn4)C4CCOCC4)cc3n12 [Example 149]
1 to 10	0.1 to 1			Cc1ncc2c(N)nc3cc(F)c(C(=O)N(Cc4ccc(OCC(F)(F)F)cn4)c4cnn(C)c4)cc3n12 [Example 116]

IC50 (HCT116 MTAP WT cells; Homo sapiens, HCT-116, 144 h) [µM]	IC50 ([1]; HCT116-MTAP null, 144 h) [µM]	IC50 (HCT116 MTAP WT cells) [µM]	IC50 [1] [µM]	Compound
1 to 10	< 0.1			Cc1ncc2c(N)nc3cc(F)c(C(=O)N(Cc4ccc(C(F)(F)F)cn4)c4cnnn4C)cc3n12 [Example 209]
0.1 to 1	< 0.1			Cc1ncc2c(N)nc3cc(F)c(C(=O)N(Cc4ncc(C(F)(F)F)cc4F)c4ccnn4C)cc3n12 [Example 228]
1 to 10	< 0.1			CCN(Cc1cn2cc(C(F)F)ccc2n1)C(=O)c1cc2c(cc1F)nc(N)c1c(C)ncn12 [Example 244]
1 to 10	0.1 to 1			Cc1ncc2c(N)nc3cc(F)c(C(=O)N(Cc4ccc(C(F)(F)F)cn4)c4cn(C)nc4CO)cc3n12 [Example 133]
1 to 10	0.1 to 1			Cc1ccc2c(N)nc3ccc(C(=O)N(Cc4ccc(C(F)(F)F)cn4)C(C)c4ncccn4)cc3n12 (stereo not drawn) [Example 12]
1 to 10	< 0.1			Cc1c(N(Cc2ccc(C(F)(F)F)cn2)C(=O)c2cc3c(cc2F)nc(N)c2cnc(C)n23)cnn1CC(F)F [Example 180]
1 to 10	< 0.1			Cc1ncc2c(N)nc3cc(F)c(C(=O)N(Cc4ccc(C(F)(F)F)cn4)c4cn(C)nc4Cl)cc3n12 [Example 175]
1 to 10	< 0.1			CCn1cc(N(Cc2ccc(C(F)(F)F)cn2)C(=O)c2cc3c(cn2)nc(N)c2cnc(C)n23)c(C)n1 [Example 192]
1 to 10	< 0.1			Cc1ccc(N(Cc2ccc(C(F)(F)F)cn2)C(=O)c2cc3c(cc2F)nc(N)c2cnc(C)n23)c(C)n1 [Example 187]
1 to 10	1 to 10			Cc1ncc2c(N)nc3cc(F)c(C(=O)N(Cc4cn5cc(C#N)ccc5n4)c4cnn(C)c4)cc3n12 [Example 63]
1 to 10	< 0.1			Cc1nn(C)cc1N(Cc1ccc(C(F)(F)F)cn1)C(=O)c1cc2c(cc1F)nc(N)c1cnc(C)n12 [Example 109]
1 to 10	< 0.1			Cc1ncn2c1c(N)nc1cc(F)c(C(=O)N3C(c4ccc(C#N)cn4)COC[C@H]3C)cc12 (stereo partly drawn) [Example 108]
1 to 10	0.1 to 1			Cc1ncn2c1c(N)nc1ccc(C(=O)N(Cc3nc(N4CCOCC4)cs3)CC(C)C)cc12 [Example 301]
1 to 10	0.1 to 1			Cc1ncc2c(N)nc3cc(F)c(C(=O)N(Cc4cn5ccccc5n4)C(C)C(F)(F)F)cc3n12 (stereo not drawn) [Example 243]
1 to 10	< 0.1			Cc1nn(CC(F)F)cc1N(Cc1ccc(C(F)(F)F)cn1)C(=O)c1cc2c(cc1F)nc(N)c1cnc(C)n12 [Example 173]
1 to 10	< 0.1			Cc1cc(C)c(N(Cc2ccc(C(F)(F)F)cn2)C(=O)c2cc3c(cc2F)nc(N)c2cnc(C)n23)cn1 [Example 194]
1 to 10	0.1 to 1			Cc1ncn2c1c(N)nc1ccc(C(=O)N(Cc3nc(-c4cccnn4)cs3)CC(C)C)cc12 [Example 294]
< 0.1	< 0.1			Cc1nn(C)cc1N(Cc1ccc(OC(F)(F)F)cn1)C(=O)c1cc2c(cc1F)nc(N)c1c(C)ncn12 [Example 170]
< 0.1	< 0.1			CCOc1ccc(CN(C(=O)c2cc3c(cc2F)nc(N)c2c(C)ncn23)c2cn(C)nc2C)nc1 [Example 168]
1 to 10	< 0.1			Cc1ncc2c(N)nc3cc(F)c(C(=O)N(Cc4ccc(F)cn4)c4ccnn4C)cc3n12 [Example 207]
< 0.1	< 0.1			Cc1nn(C)cc1N(Cc1ccc(C(F)(F)F)cn1)C(=O)c1cc2c(cc1F)nc(N)c1c(C)ncn12 [Example 134]
1 to 10	< 0.1			Cc1ncc2c(N)nc3cc(F)c(C(=O)N(Cc4cnn(C5CC5)c4)c4ccnn4C)cc3n12 [Example 317]
1 to 10				Cn1nccc1N(Cc1cn2cc(C(F)(F)F)ccc2n1)C(=O)c1cc2c(cc1F)nc(N)c1cnn(C)c12 [Example 218]
	0.1 to 1			C[C@@H]1COC[C@H](c2cn3ccccc3n2)N1C(=O)c1ccc2nc(N)c3cnn(C)c3c2c1 [Example 416]
1 to 10				Cc1nn(C)cc1N(Cc1cn2cc(C(F)(F)F)ccc2n1)C(=O)c1cc2c(cc1F)nc(N)c1cnn(C)c12 [Example 204]
